Results reported in patent publication US12441718B2, “Selective angiotensin II compounds” (VICORE PHARMA AB, priority 2021, dated 2025).
Like-named read-outs stand apart in the source and are kept apart here.

Tests used:
[1] = Metabolic stability in pooled human liver microsomes; type: in vitro ADME; settings: human, pooled human liver microsomes, pooled human liver microsomes 0.5 mg/mL, 1 μM test compound, 37° C., * rows = mean of two runs
Procedure: Pooled human liver microsomes in PBS at a concentration of 0.5 mg/mL was incubated with or without 1 mM NADPH for 70 min at 37° C. Test compound was added after 10 minutes to a final concentration of 1 μM. Samples were withdrawn at 0, 5, 15 and 60 minutes and added to test tubes containing acetonitrile, to stop the reaction, and with terfenadine, used as internal standard. After centrifugation at 10 000×g for 5 minutes the supernatant was diluted 1:1 with 1% formic acid. Samples were separated on a reverse phase column and detected by triple quadrupole MSMS (Agilant model 6540). The concentration of the parent compound at the different time points was measured with an external standard curve using terfenadine as internal standard and the initial metabolic rate in the presence or absence of NADPH calculated.

[2] = molecular target: T1, human recombinant AT2 receptor (Homo sapiens, UniProt P50052); assay: Binding to AT2 receptor, radiometric scintillation assay (Eurofins ITEM26); settings: ligand 125I CGP 42112A, * rows = mean of runs; for Ki: seven-point dose-response curve; for IC50: test compounds at 1, 10, 100 and 1000 nM, read-out: AT2 GraFit IC50
T1 construct: purchased Eurofins ITEM26 (protocol number)
T1 sequence (P50052 1-363): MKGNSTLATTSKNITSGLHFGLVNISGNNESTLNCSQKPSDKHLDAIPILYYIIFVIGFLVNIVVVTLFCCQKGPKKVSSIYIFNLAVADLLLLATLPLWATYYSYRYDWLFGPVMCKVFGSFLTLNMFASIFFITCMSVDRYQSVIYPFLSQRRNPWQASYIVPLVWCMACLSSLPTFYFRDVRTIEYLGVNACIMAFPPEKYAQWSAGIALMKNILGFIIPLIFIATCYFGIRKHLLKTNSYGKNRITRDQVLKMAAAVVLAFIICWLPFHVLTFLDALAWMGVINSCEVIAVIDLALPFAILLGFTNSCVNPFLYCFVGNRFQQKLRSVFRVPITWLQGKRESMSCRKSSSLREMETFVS

[3] = molecular target: T2, CYP1A2 (Homo sapiens, UniProt P05177); assay: in vitro; type: in vitro ADME; settings: human, microsomes, human liver microsomes, substrate phenacetin, read-out: CYP1A2 Inh %
T2 construct: isoform-specific substrates incubated with human liver microsomes; tissue Eurofins ITEMG232 (protocol number); host or cells: human liver microsomes
Procedure: The following substrates were used; CYP1A phenacetin, CYP2B36 bupropion, CYP2C8 paclitaxel and amodiaquine, CYP2C9 diclofenac, CYP2C19 omeprazole, CYP2D6 dextromethorphan, CYP3A midazolam and testosterone.
At the end of the incubation, the formation of metabolite was monitored by HPLC-MS/MS as the peak area response.

[4] = molecular target: T3, CYP2B6 (Homo sapiens, UniProt P20813); assay: CYP inhibition in human liver microsomes (Eurofins ITEMG232); type: in vitro ADME; settings: probe bupropion, substrate bupropion, read-out: CYP2B6 Inh %
T3 construct: isoform-specific substrates incubated with human liver microsomes; tissue Eurofins ITEMG232 (protocol number); host or cells: human liver microsomes
T3 sequence (P20813 1-491): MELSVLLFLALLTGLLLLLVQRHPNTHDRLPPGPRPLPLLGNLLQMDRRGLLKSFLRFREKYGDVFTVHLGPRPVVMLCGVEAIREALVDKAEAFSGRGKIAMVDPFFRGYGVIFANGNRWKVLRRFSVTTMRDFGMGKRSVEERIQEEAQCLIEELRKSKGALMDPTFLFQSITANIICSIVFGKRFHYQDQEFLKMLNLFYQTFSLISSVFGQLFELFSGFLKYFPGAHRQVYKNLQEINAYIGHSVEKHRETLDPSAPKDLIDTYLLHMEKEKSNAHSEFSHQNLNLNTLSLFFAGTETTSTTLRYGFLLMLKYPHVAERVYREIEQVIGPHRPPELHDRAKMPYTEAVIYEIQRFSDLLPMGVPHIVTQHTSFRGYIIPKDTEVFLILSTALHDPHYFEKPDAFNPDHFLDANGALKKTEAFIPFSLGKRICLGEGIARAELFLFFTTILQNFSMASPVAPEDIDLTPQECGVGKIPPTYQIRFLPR

[5] = molecular target: T4, CYP2C19 (Homo sapiens, UniProt P33261); assay: as above; type: in vitro ADME; settings: human, probe omeprazole, substrate omeprazole, read-out: CYP2C19 Inh %
T4 construct: isoform-specific substrates incubated with human liver microsomes; tissue Eurofins ITEMG232 (protocol number); host or cells: human liver microsomes

[6] = molecular target: T5, CYP2C8 (Homo sapiens, UniProt P10632); assay: as above; type: in vitro ADME; settings: human, probe paclitaxel and amodiaquine, substrate paclitaxel and amodiaquine, read-out: CYP2C8 Inh %
T5 construct: isoform-specific substrates incubated with human liver microsomes; tissue Eurofins ITEMG232 (protocol number); host or cells: human liver microsomes
T5 sequence (P10632 1-490): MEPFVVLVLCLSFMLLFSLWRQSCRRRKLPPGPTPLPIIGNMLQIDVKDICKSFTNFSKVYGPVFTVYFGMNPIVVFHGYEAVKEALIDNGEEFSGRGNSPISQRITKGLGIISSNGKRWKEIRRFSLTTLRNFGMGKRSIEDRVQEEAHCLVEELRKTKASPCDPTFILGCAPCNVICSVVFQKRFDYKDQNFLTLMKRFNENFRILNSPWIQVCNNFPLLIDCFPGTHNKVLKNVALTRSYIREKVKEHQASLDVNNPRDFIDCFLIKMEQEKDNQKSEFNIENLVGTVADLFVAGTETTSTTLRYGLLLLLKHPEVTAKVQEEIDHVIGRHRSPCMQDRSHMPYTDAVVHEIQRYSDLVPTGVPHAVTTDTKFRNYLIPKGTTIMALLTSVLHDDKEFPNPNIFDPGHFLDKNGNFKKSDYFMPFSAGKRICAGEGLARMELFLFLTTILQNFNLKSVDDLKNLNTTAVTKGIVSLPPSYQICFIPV

[7] = molecular target: T6, CYP2D6 (Homo sapiens, UniProt P10635); assay: as above; type: in vitro ADME; settings: probe dextromethorphan, substrate dextromethorphan, read-out: CYP2D6 Inh %
T6 construct: isoform-specific substrates incubated with human liver microsomes; tissue Eurofins ITEMG232 (protocol number); host or cells: human liver microsomes

[8] = tested on: CYP3A4&5; assay: in vitro; settings: human, human liver microsomes, probe testosterone;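 further: Read-out is the metabolite generated from the probe substrate, quantified as HPLC-MS/MS peak area once incubation ends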
[9] = molecular target: CYP2C9 (Homo sapiens, UniProt P11712); assay: CYP inhibition in human liver microsomes (Eurofins ITEMG232); type: in vitro ADME; set-up: isoform-specific substrates incubated with human liver microsomes; tissue Eurofins ITEMG232 (protocol number); host or cells: human liver microsomes; settings: human, probe diclofenac, substrate diclofenac, read-out: CYP2C9 Inh %
[10] = molecular target: CYP3A4 (Homo sapiens, UniProt P08684); assay: CYP inhibition in human liver microsomes (Eurofins ITEMG232), midazolam substrate; type: in vitro ADME; set-up: isoform-specific substrates incubated with human liver microsomes; tissue Eurofins ITEMG232 (protocol number); host or cells: human liver microsomes; settings: human, probe midazolam, read-out: CYP3A4 midazolam Inh %
[11] = with 1 mM NADPH, read-out: T1/2, + NaDPH
[12] = without NADPH, read-out: T1/2, no NaDPH

Chain of CYP2C9 (P11712 whole entry, canonical isoform): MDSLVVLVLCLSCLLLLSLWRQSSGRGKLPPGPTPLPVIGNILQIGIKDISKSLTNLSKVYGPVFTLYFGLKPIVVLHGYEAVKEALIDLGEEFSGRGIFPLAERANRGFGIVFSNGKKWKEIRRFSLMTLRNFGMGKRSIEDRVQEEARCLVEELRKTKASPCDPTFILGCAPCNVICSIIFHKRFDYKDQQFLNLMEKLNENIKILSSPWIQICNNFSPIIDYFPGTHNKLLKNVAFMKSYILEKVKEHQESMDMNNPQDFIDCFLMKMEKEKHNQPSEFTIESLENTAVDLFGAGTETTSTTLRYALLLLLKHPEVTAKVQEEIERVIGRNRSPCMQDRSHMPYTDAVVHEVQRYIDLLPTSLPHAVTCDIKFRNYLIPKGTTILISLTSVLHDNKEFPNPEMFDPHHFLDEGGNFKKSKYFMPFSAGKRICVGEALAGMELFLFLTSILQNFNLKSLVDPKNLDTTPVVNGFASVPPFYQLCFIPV
T6 sequence (P10635 whole entry, canonical isoform): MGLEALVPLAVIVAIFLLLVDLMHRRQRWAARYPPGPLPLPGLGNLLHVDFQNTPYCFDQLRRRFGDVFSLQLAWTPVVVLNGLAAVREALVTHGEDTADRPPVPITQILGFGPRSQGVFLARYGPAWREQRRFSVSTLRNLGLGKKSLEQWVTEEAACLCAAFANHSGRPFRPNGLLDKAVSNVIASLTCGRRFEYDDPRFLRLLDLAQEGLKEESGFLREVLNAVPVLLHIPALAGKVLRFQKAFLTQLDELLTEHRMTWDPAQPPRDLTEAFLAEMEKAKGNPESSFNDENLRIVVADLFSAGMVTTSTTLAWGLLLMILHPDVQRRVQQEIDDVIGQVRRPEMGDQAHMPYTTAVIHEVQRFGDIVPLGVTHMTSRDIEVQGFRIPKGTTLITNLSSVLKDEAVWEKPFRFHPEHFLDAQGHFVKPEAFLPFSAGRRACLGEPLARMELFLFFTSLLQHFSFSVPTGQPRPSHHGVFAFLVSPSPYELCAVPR
T4 sequence (P33261 whole entry, canonical isoform): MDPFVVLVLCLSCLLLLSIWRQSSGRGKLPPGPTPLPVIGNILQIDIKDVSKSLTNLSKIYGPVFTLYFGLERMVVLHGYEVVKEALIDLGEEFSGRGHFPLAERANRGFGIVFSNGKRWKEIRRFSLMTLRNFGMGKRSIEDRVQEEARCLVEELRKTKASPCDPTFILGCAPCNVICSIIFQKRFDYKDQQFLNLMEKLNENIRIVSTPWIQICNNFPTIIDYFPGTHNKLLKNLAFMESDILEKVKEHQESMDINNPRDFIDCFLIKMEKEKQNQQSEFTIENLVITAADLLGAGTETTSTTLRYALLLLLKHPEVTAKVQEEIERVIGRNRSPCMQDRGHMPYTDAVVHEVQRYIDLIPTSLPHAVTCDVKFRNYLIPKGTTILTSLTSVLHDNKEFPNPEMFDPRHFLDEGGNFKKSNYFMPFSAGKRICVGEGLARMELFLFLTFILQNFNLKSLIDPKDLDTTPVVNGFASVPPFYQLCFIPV
Chain of CYP3A4 (P08684 whole entry, canonical isoform): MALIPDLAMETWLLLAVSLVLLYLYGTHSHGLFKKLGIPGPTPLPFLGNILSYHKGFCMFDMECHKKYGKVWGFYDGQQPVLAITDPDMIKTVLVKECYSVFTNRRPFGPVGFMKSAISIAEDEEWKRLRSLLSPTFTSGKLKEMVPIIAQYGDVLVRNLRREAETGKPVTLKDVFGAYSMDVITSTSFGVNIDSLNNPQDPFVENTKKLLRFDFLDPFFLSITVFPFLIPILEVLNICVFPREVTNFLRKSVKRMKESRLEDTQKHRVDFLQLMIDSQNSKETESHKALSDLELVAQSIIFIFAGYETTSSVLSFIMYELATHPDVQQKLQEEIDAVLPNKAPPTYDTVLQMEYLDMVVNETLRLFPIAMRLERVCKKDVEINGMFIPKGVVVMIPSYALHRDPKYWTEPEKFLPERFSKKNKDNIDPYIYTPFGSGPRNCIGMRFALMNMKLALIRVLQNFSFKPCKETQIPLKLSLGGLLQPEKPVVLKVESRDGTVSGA
T2 sequence (P05177 whole entry, canonical isoform): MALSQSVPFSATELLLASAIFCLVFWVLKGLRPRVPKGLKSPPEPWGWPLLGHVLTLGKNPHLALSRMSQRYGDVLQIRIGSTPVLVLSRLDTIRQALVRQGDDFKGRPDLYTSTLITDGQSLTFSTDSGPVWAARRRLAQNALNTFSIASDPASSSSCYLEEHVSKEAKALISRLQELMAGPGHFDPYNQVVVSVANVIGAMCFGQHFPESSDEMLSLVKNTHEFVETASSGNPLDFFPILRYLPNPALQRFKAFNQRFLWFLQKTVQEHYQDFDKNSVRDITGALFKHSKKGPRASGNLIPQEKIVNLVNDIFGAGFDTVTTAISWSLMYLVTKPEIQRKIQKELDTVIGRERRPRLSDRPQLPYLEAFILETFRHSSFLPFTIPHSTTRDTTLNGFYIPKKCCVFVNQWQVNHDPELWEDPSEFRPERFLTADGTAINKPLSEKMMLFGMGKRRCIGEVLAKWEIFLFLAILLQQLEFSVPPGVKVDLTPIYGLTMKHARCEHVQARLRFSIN

| SMILES | half-life at 1 μM [1, 11] | half-life at 1 μM [1, 12] | Ki [2] | IC50 [2] | inhibition at 10 µM [3] | inhibition at 10 µM [4] | inhibition at 10 µM [5] | inhibition at 10 µM [6] | inhibition at 10 µM [7] | inhibition at 10 µM [8] | inhibition at 10 µM [9] | inhibition at 10 µM [10] |
| --- | --- | --- | --- | --- | --- | --- | --- | --- | --- | --- | --- | --- |
| Cc1cnc(NS(=O)(=O)c2ccc(CC(C)C)cc2-c2ccc(Cn3ccnc3C(C)(C)C)c(F)c2)nc1 [Example 26, 4′-((2-(tert-Butyl)-1H-imidazol-1-yl)methyl)-3′-fluoro-5-isobutyl-N-(5-methylpyrimidin-2-yl)-[1,1′-biphenyl]-2-sulfonamide] | 0.733 h | > 1 h | 1.68 nM | 0.84 nM | 10.3% | 16.9% | 46.5% | 9.9% | 44.1% | 34.9% | 66.4% | 48.7% |
| COc1ncnc(OC)c1NS(=O)(=O)c1ccc(CC(C)C)cc1-c1ccc(Cn2ccnc2C(C)(C)C)c(F)c1 [Example 25, 4′-((2-(tert-Butyl)-1H-imidazol-1-yl)methyl)-N-(4,6-dimethoxypyrimidin-5-yl)-3′-fluoro-5-isobutyl-[1,1′-biphenyl]-2-sulfonamide] | 0.1 h | > 1 h | 75 nM | 150 nM | -5.4% | 19.4% | 65.8% | 40% | 11.9% | 57.3% | 80.7% | 65.1% |
| COc1ccc(NS(=O)(=O)c2ccc(CC(C)C)cc2-c2ccc(Cn3ccnc3C(C)(C)C)c(F)c2)nn1 [Example 23, 4′-((2-(tert-Butyl)-1H-imidazol-1-yl)methyl)-3′-fluoro-5-isobutyl-N-(6-methoxypyridazin-3-yl)-[1,1′-biphenyl]-2-sulfonamide] | 0.233 h | > 1 h | 0.32 nM | 0.64 nM | 6.6% | 5.7% | 63.5% | 24.6% | 4.5% | 39.7% | 42.9% | 55.8% |
| COc1ccc(NS(=O)(=O)c2ccc(CC(C)C)cc2-c2ccc(Cn3ccnc3C(C)(C)C)cc2)nn1 [Example 14, 4′-((2-(tert-Butyl)-1H-imidazol-1-yl)methyl)-5-isobutyl-N-(6-methoxypyridazin-3-yl)-[1,1′-biphenyl]-2-sulfonamide] | 0.333 h | > 1 h | 2.6 nM | 5.2 nM | 30% | 25.9% | 58.4% | 74.3% | 24.6% | 24.8% | 55.5% | 10.3% |
| Cc1nc(NS(=O)(=O)c2ccc(CC(C)C)cc2-c2ccc(Cn3ccnc3C(C)(C)C)cc2)oc1C [Example 13, 4′-((2-(tert-Butyl)-1H-imidazol-1-yl)methyl)-N-(4,5-dimethyloxazol-2-yl)-5-isobutyl-[1,1′-biphenyl]-2-sulfonamide] | 0.567 h | > 1 h | 22.9 nM | 45.8 nM | 19.8% | 30.4% | 52.1% | 71.3% | 17.6% | -2.8% | 50.9% | -48.7% |
| CC(C)Cc1ccc(S(=O)(=O)Nc2ncc(Br)cn2)c(-c2ccc(Cn3ccnc3C(C)(C)C)c(F)c2)c1 [Example 11, N-(5-Bromopyrimidin-2-yl)-4′-((2-(tert-butyl)-1H-imidazol-1-yl)methyl)-3′-fluoro-5-isobutyl-[1,1′-biphenyl]-2-sulfonamide] | > 1 h | > 1 h | 1.54 nM | 3.07 nM | 14.3% | 48% | 47.5% | 89.6% | 20% | -19.3% | 82% | 16.1% |
| Cc1nccn1Cc1ccc(-c2cc(CC(C)C)ccc2S(=O)(=O)Nc2ncccn2)cc1F [Example 28, 3′-Fluoro-5-isobutyl-4′-((2-methyl-1H-imidazol-1-yl)methyl)-N-(pyrimidin-2-yl)-[1,1′-biphenyl]-2-sulfonamide] | > 1 h | > 1 h | 0.4 nM | 0.8 nM | 22.2% | 40.8% | 65% | 41.6% | 14.2% | 37.4% | 31.1% | 34.8% |
| CC(C)Cc1ccc(S(=O)(=O)Nc2ncc(Br)cn2)c(-c2ccc(Cn3ccnc3C(C)(C)C)cc2)c1 [Example 1, N-(5-Bromopyrimidin-2-yl)-4′-((2-(tert-butyl)-1H-imidazol-1-yl)methyl)-5-isobutyl-[1,1′-biphenyl]-2-sulfonamide] | > 1 h | > 1 h | 2.12 nM | 4.2 nM | 85.4% | 19.5% | 37.2% | 87.8% | 14.1% | 18.2% | 60.5% | 41.7% |
